As a reminder, the IC50 is the concentration at which inhibition is half-maximal.

The values below come from article PMC11273930, “Bioactive Bioxanthracene and Cyclodepsipeptides from the Entomopathogenic Fungus Blackwellomyces roseostromatus BCC56290” (Antibiotics, 2024).

What all share (assay): Cytotoxicity (MTT) assay
Holding throughout (type): cell-based

For experiment [1], the system named is A431 (skin) epidermoid carcinoma cells. As to conditions: Homo sapiens, A-431, read-out: IC50, Positive Control Epothilone B (nM). How it is done: (§1) In vitro cytotoxic activity of the isolated compounds was tested by applying the MTT (3-(4,5-dimethylthiayol-2-yl)-2,5-diphenyltetrazolium bromide) assay as previously reported. The mammalian cell lines used in the tests were sourced from DSMZ and included mouse fibroblasts (L929) and endocervical adenocarcinoma (KB3.1), human lung carcinoma (A549), breast adenocarcinoma (MCF-7), human ovarian cancer (SKOV-3), prostate carcinoma (PC-3), and epidermoid carcinoma cells (A431). Epothilone B was used as the positive control.

Experiment [2] concerns MCF-7 (breast) adenocarcinoma. As to conditions: Homo sapiens, MCF7, read-out: IC50, Positive Control Epothilone B (nM). As to the method:
as §1

Experiment [3] concerns PC-3 (prostate) carcinoma. As to conditions: Homo sapiens, read-out: IC50, Positive Control Epothilone B (nM). How it is done: as §1
Experiment [4] deals with A549 (lung) human lung carcinoma. As to conditions: A549, read-out: IC50, Positive Control Epothilone B (nM). How it is done:
as §1

Turning to `C/C(=C\c1csc(C)n1)[C@@H]1C[C@@H]2O[C@]2(C)CCC[C@H](C)[C@H](O)[C@@H](C)C(=O)C(C)(C)[C@@H](O)CC(=O)O1` [Epothilone B], the IC50 in experiment [1] was determined as 0.06 nM; in experiment [2], 0.07 nM; in experiment [3], 0.09 nM; in experiment [4], 0.05 nM.
